# Data: patent publication US20260365682A1, “MODULATORS OF TNF-ALPHA ACTIVITY” (Forward Therapeutics, Inc., priority 2022, published 2026)
# Target: T1, TNF-α (Homo sapiens, UniProt P01375)
# T1 construct: purchased R&D 210-TA-020/CF
# Experiment: TNF-α Induced HEK Blue Cellular Assay (secreted alkaline phosphatase expression, QUANTI-Blue)
# Assay type: cell-based
# Details: HEK Blue TNFα reporter cells; TNF-α 100 μg/ml; 24 hrs at 37° C.; inhibition of secreted alkaline phosphatase; read-out: IC50 value
# Procedure: TNF-α Induced HEK Blue Cellular Assay
# Test articles were diluted in DMSO and serially diluted into 384 well assay plate (Corning 3765), at final concentrations ranging from […] to 0.5 nM. HEK Blue™ TNFα reporter cells were added at a final density of 10,000 cell per well in assay media [DMEM (Gibco, cat #21063-029), 10% fetal bovine serum (ExcelBio, cat #FND500), 1% Penicillin-Streptomycin (Solarbio, cat #P1400-100]. TNF-α (R&D 210-TA-020/CF) was then added to the assay plate at a final concentration of […]. This plate was then incubated for 24 hrs at 37° C. and 5% CO2. Secreted alkaline phosphatase expression was then measured using QUANTI-Blue™ (Invivogen), according to manufacturer instructions and read on an Envision microplate reader at 620 nm.
# Inhibition data for test compound over a range of concentration was plotted as percentage inhibition of the test compound (100%=maximum inhibition). IC50 values were determined after correcting for background [(sample read-mean of low control)/(mean of high control-mean of low control)] whereby the low control is DMSO without stimulation and high control is DMSO with stimulation. The IC50 is defined as the concentration of test compound which produces 50% inhibition and was quantified using the 4 parameter logistic equation to fit the data.
# T1 sequence (P01375 77-233 limits assumed): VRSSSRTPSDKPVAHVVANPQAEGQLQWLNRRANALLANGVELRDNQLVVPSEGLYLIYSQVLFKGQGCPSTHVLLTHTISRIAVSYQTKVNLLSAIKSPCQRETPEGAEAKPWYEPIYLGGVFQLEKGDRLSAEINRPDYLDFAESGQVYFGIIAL
row,IC50 [nM],SMILES
1,< 100,"[2H]C([2H])([2H])N1C(=O)c2cccc(OC(F)F)c2[C@H]2C[C@@H]1c1nc3ccc(C#CC(=O)OC)cc3n12 [Example 27, methyl 3-((7R,14R)-1-(difluoromethoxy)-6-(methyl-d3)-5-oxo-5,6,7,14-tetrahydro-7,14-methanobenzo[f]benzo[4,5]imidazo[1,2-a][1,4]diazocin-11-yl)propiolate]"
2,< 100,"[2H]C([2H])([2H])N1C(=O)c2cccc(OC(F)F)c2[C@H]2C[C@@H]1c1nc3ccc(C#Cc4nnc(C)o4)cc3n12 [Example 28, (7R,14R)-1-(difluoromethoxy)-6-(methyl-d3)-11-((5-methyl-1,3,4-oxadiazol-2-yl)ethynyl)-6,7-dihydro-7,14-methanobenzo[f]benzo[4,5]imidazo[1,2-a][1,4]diazocin-5(14H)-one]"
3,< 100,"[2H]C([2H])([2H])N1C(=O)c2cccc(OC(F)F)c2[C@H]2C[C@@H]1c1nc3ccc(C#Cc4nnc(C)s4)cc3n12 [Example 29, (7R,14R)-1-(difluoromethoxy)-6-(methyl-d3)-11-((5-methyl-1,3,4-thiadiazol-2-yl)ethynyl)-6,7-dihydro-7,14-methanobenzo[f]benzo[4,5]imidazo[1,2-a][1,4]diazocin-5(14H)-one]"
4,< 100,"[2H]C([2H])([2H])N1C(=O)c2cccc(OC(F)F)c2[C@H]2C[C@@H]1c1nc3ccc(C#Cc4nncs4)cc3n12 [Example 30, (7R,14R)-11-((1,3,4-thiadiazol-2-yl)ethynyl)-1-(difluoromethoxy)-6-(methyl-d3)-6,7-dihydro-7,14-methanobenzo[f]benzo[4,5]imidazo[1,2-a][1,4]diazocin-5(14H)-one]"

# Second part, the molecule before the results:
row,SMILES,IC50 [nM]
1,"[2H]C([2H])([2H])N1C(=O)c2cccc(OC(F)F)c2[C@H]2C[C@@H]1c1nc3ccc(C#Cc4cnccn4)cc3n12 [Example 22, (7R,14R)-1-(difluoromethoxy)-6-(methyl-d3)-11-(pyrazin-2-ylethynyl)-6,7-dihydro-7,14-methanobenzo[f]benzo[4,5]imidazo[1,2-a][1,4]diazocin-5(14H)-one]",< 100
2,"[2H]C([2H])([2H])N1C(=O)c2cccc(OC(F)F)c2[C@H]2C[C@@H]1c1nc3ccc(C#Cc4cnc(C(F)(F)F)nc4)cc3n12 [Example 23, (7R,14R)-1-(difluoromethoxy)-6-(methyl-d3)-11-((2-(trifluoromethyl)pyrimidin-5-yl)ethynyl)-6,7-dihydro-7,14-methanobenzo[f]benzo[4,5]imidazo[1,2-a][1,4]diazocin-5(14H)-one]",100 to 1000
3,"[2H]C([2H])([2H])N1C(=O)c2cccc(OC(F)F)c2[C@H]2C[C@@H]1c1nc3ccc(C#Cc4cnn(C)c4C#N)cc3n12 [Example 24, 4-(((7R,14R)-1-(difluoromethoxy)-6-(methyl-d3)-5-oxo-5,6,7,14-tetrahydro-7,14-methanobenzo[f]benzo[4,5]imidazo[1,2-a][1,4]diazocin-11-yl)ethynyl)-1-methyl-1H-pyrazole-5-carbonitrile]",< 100
4,"[2H]C([2H])([2H])N1C(=O)c2cccc(OC(F)F)c2[C@H]2C[C@@H]1c1nc3ccc(C#Cc4nncn4C)cc3n12 [Example 25, (7R,14R)-1-(difluoromethoxy)-6-(methyl-d3)-11-((4-methyl-4H-1,2,4-triazol-3-yl)ethynyl)-6,7-dihydro-7,14-methanobenzo[f]benzo[4,5]imidazo[1,2-a][1,4]diazocin-5(14H)-one]",1000 to 10000
5,"[2H]C([2H])([2H])N1C(=O)c2cccc(OC(F)F)c2[C@H]2C[C@@H]1c1nc3ccc(C#Cc4ccc(C)nn4)cc3n12 [Example 26, (7R,14R)-1-(difluoromethoxy)-6-(methyl-d3)-11-((6-methylpyridazin-3-yl)ethynyl)-6,7-dihydro-7,14-methanobenzo[f]benzo[4,5]imidazo[1,2-a][1,4]diazocin-5(14H)-one]",100 to 1000
